Test results: patent US12281149B2, “Modulators of G-protein coupled receptors” (priority 2021, dated 2025)
*1 amine or outer side, *2 acyl side, *3 side chain or, on linkers, in order; H or OH if unused. Where a SMILES comes first, the peptide text is derived from it. Side-chain parts run from the residue outwards. [ ]: non-standard residue; d: D form. The star is where a group is joined. C20 diacid = O=C(O)CCCCCCCCCCCCCCCCCCC(=O)*; X56 = CC(C)(C(=O)*)c1cc(F)cc(C(N)=O)c1; γGlu = O=C(O)[C@H](CCC(=O)[*:2])N[*:1]; X54 = Cc1cn(C(C)(C)C(=O)*)nc1C(F)(F)F; X81 = CCC(CC)(C(=O)*)c1cc(F)cc(C#N)c1; X28 = O=C(C1(n2cccn2)CCNCC1)*; X76 = CC(C)(C(=O)*)c1cncnc1; AEEA = NCCOCCOCC(=O)O; Aib = CC(C)(N)C(=O)O; βAla = NCCC(=O)O

Assays:
Type in all cases: cell-based
[1] = target: T1, GLP-1 receptor (Homo sapiens, UniProt P43220); assay: HitHunter cAMP assay, GLP-1 receptor; conditions: for EC50: CHO cells stably expressing human GLP-1 receptor, cAMP accumulation, 30 min, read-out: EC50 GLP-1R; for Emax: CHO cells, cAMP, normalized to maximum signal from GLP-1 (high) and DMSO (low), read-out: Emax GLP-1R
T1 sequence (P43220 24-463): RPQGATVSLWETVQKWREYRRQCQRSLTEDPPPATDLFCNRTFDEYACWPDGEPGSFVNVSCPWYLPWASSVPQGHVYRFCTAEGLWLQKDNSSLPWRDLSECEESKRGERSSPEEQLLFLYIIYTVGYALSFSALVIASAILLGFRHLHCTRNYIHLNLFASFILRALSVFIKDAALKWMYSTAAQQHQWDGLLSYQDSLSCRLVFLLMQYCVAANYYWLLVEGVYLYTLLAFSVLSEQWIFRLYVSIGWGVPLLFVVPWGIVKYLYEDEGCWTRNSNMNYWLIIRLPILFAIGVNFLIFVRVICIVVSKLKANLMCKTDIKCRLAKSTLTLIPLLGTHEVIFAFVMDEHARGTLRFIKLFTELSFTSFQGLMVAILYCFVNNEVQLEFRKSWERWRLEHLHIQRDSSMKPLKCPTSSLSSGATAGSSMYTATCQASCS
Method: CAMP accumulation was measured in Chinese hamster ovary (CHO) cells stably expressing the human GLP-1 receptor or GIP receptor using the HitHunter CAMP Assay for Small Molecules Kit (Eurofins). Briefly, cells were grown in Ham's F12 Nutrient Mix with 10% FBS and lifted with Cell dissociation buffer, Enzyme free, PBS based (ThermoFisher). Cells were pelleted and resuspended in Hank's buffered saline solution with 10 mM Hepes and 625 μM 3-isobutyl-1-methylxanthine. The antibody reagent was then added to cells at a 1:2 ratio and 5 μL of mixture was seeded in 384-well small volume white assay plates, at 10,000 cells/well. Cells were then treated with 50 nl compound in DMSO using an ECHO 550 acoustic dispenser (Labcyte) in a 20-point dose response format in triplicate for 30 min. Cells were the lysed and detection reagents added according to the manufacturer's protocol. After overnight incubation, luminescence was measured using a Perkin Elmer Envision plate reader. Raw data was normalized to the maximum signal from GLP-1 or GIP (high) and DMSO (low). Dose response curves were analyzed using GraphPad Prism 9.0.

[2] = target: T1, GLP-1 receptor; assay: PathHunter β-arrestin assay, GLP-1 receptor; set-up: host or cells: PathHunter CHO-K1 GLP1R β-Arrestin Cell Line; conditions: β-arrestin-2 recruitment, PathHunter CHO-K1 GLP1R β-Arrestin Cell Line, 90 min at 37° C.; normalized to GLP-1; read-out: GLP-1R β Arrestin EC50
[3] = target: T2, GIP receptor (Homo sapiens, UniProt P48546); assay: HitHunter cAMP assay, GIP receptor; conditions: for EC50: CHO cells stably expressing GIP receptor, cAMP accumulation, 30 min, read-out: EC50 GIP-1R; for Emax: CHO cells, cAMP, normalized to maximum signal from GIP (high) and DMSO (low), read-out: Emax GIP-1R
T2 sequence (P48546 22-466): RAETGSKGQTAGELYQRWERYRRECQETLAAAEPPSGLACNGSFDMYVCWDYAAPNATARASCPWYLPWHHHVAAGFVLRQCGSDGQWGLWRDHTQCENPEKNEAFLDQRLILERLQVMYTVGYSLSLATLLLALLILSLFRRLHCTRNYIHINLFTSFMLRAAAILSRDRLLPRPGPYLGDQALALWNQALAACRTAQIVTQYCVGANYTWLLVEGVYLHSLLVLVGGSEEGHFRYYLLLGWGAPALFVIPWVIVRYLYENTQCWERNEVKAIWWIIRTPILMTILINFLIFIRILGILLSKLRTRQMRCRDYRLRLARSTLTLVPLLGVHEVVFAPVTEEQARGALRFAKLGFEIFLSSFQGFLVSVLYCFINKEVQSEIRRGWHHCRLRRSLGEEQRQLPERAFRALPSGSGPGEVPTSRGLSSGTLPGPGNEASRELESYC

[4] = target: T2, GIP receptor; assay: PathHunter β-arrestin assay, GIP receptor; set-up: host or cells: PathHunter CHO-K1 GIPR β-Arrestin Cell Line; conditions: β-arrestin-2 recruitment, PathHunter CHO-K1 GIPR β-Arrestin Cell Line, 90 min at 37° C.; normalized to GIP; read-out: GIPR β Arrestin EC50

| SMILES | EC50 [1] [nM] | Emax [1] [%] | EC50 [2] [nM] | EC50 [3] [nM] | Emax [3] [%] | EC50 [4] [nM] |
| --- | --- | --- | --- | --- | --- | --- |
| CC[C@H](C)[C@H](NC(=O)[C@H](CC(C)C)NC(=O)[C@H](Cc1c[nH]c2ccccc12)NC(=O)[C@H](CCC(N)=O)NC(=O)[C@@H](NC(=O)[C@H](Cc1ccccc1)NC(=O)[C@H](C)NC(=O)[C@H](CCCCNC(=O)COCCOCCNC(=O)COCCOCCNC(=O)CC[C@H](NC(=O)CCCCCCCCCCCCCCCCCCC(=O)O)C(=O)O)NC(=O)[C@H](CCC(N)=O)NC(=O)[C@H](C)NC(=O)[C@@H](NC(=O)[C@H](CCCCN)NC(=O)[C@H](CC(=O)O)NC(=O)[C@H](CC(C)C)NC(=O)C(C)(C)NC(=O)[C@@H](NC(=O)[C@H](CO)NC(=O)[C@H](Cc1ccc(O)cc1)NC(=O)[C@H](CC(=O)O)NC(=O)[C@H](CO)NC(=O)[C@@H](NC(=O)[C@H](Cc1ccccc1)NC(=O)[C@@H](NC(=O)CNC(=O)[C@H](CCC(=O)O)NC(=O)CCNC(=O)C(C)(C)n1cc(C)c(C(F)(F)F)n1)[C@@H](C)O)[C@@H](C)O)[C@@H](C)CC)[C@@H](C)CC)C(C)C)C(=O)N[C@@H](C)C(=O)NCC(=O)NCC(=O)N1CCC[C@H]1C(=O)N[C@@H](CO)C(=O)N[C@@H](CO)C(=O)NCC(=O)N[C@@H](C)C(=O)N1CCC[C@H]1C(=O)N1CCC[C@H]1C(=O)N1CCC[C@H]1C(=O)N[C@@H](CO)C(N)=O [Compound 158] ({X54-βAla}-EGTFTSDYSI[Aib]LDKIAQK([AEEA-AEEA-γGlu-C20 diacid])AFVQWLIAGGPSSGAPPPS-NH2) | 0.1 to 1 | 97 | > 1000 | 10 to 100 | 118 | > 1000 |
| CC[C@H](C)[C@H](NC(=O)[C@H](CC(C)C)NC(=O)[C@H](Cc1c[nH]c2ccccc12)NC(=O)[C@H](CCC(N)=O)NC(=O)[C@@H](NC(=O)[C@H](Cc1ccccc1)NC(=O)[C@H](C)NC(=O)[C@H](CCCCNC(=O)COCCOCCNC(=O)COCCOCCNC(=O)CC[C@H](NC(=O)CCCCCCCCCCCCCCCCCCC(=O)O)C(=O)O)NC(=O)[C@H](CCC(N)=O)NC(=O)[C@H](C)NC(=O)[C@@H](NC(=O)[C@H](CCCCN)NC(=O)[C@H](CC(=O)O)NC(=O)[C@H](CC(C)C)NC(=O)C(C)(C)NC(=O)[C@@H](NC(=O)[C@H](CO)NC(=O)[C@H](Cc1ccc(O)cc1)NC(=O)[C@H](CC(=O)O)NC(=O)[C@H](CO)NC(=O)[C@@H](NC(=O)[C@H](Cc1ccccc1)NC(=O)[C@@H](NC(=O)CNC(=O)[C@H](CCC(=O)O)NC(=O)CCNC(=O)C(C)(C)c1cc(F)cc(C(N)=O)c1)[C@@H](C)O)[C@@H](C)O)[C@@H](C)CC)[C@@H](C)CC)C(C)C)C(=O)N[C@@H](C)C(=O)NCC(=O)NCC(=O)N1CCC[C@H]1C(=O)N[C@@H](CO)C(=O)N[C@@H](CO)C(=O)NCC(=O)N[C@@H](C)C(=O)N1CCC[C@H]1C(=O)N1CCC[C@H]1C(=O)N1CCC[C@H]1C(=O)N[C@@H](CO)C(N)=O [Compound 159] ({X56-βAla}-EGTFTSDYSI[Aib]LDKIAQK([AEEA-AEEA-γGlu-C20 diacid])AFVQWLIAGGPSSGAPPPS-NH2) | 1 to 10 | 100 | > 1000 | 10 to 100 | 104 | > 1000 |
| CC[C@H](C)[C@H](NC(=O)[C@H](CC(C)C)NC(=O)[C@H](Cc1c[nH]c2ccccc12)NC(=O)[C@H](CCC(N)=O)NC(=O)[C@@H](NC(=O)[C@H](Cc1ccccc1)NC(=O)[C@H](C)NC(=O)[C@H](CCCCNC(=O)COCCOCCNC(=O)COCCOCCNC(=O)CC[C@H](NC(=O)CCCCCCCCCCCCCCCCCCC(=O)O)C(=O)O)NC(=O)[C@H](CCC(N)=O)NC(=O)[C@H](C)NC(=O)[C@@H](NC(=O)[C@H](CCCCN)NC(=O)[C@H](CC(=O)O)NC(=O)[C@H](CC(C)C)NC(=O)C(C)(C)NC(=O)[C@@H](NC(=O)[C@H](CO)NC(=O)[C@H](Cc1ccc(O)cc1)NC(=O)[C@H](CC(=O)O)NC(=O)[C@H](CO)NC(=O)[C@@H](NC(=O)[C@H](Cc1ccccc1)NC(=O)[C@@H](NC(=O)CNC(=O)[C@H](CCC(=O)O)NC(=O)CCNC(=O)C1(n2cccn2)CCNCC1)[C@@H](C)O)[C@@H](C)O)[C@@H](C)CC)[C@@H](C)CC)C(C)C)C(=O)N[C@@H](C)C(=O)NCC(=O)NCC(=O)N1CCC[C@H]1C(=O)N[C@@H](CO)C(=O)N[C@@H](CO)C(=O)NCC(=O)N[C@@H](C)C(=O)N1CCC[C@H]1C(=O)N1CCC[C@H]1C(=O)N1CCC[C@H]1C(=O)N[C@@H](CO)C(N)=O [Compound 160] ({X28-βAla}-EGTFTSDYSI[Aib]LDKIAQK([AEEA-AEEA-γGlu-C20 diacid])AFVQWLIAGGPSSGAPPPS-NH2) | 10 to 100 | 97 | > 1000 | 100 to 1000 | 94 | > 1000 |
| CC[C@H](C)[C@H](NC(=O)[C@H](CC(C)C)NC(=O)[C@H](Cc1c[nH]c2ccccc12)NC(=O)[C@H](CCC(N)=O)NC(=O)[C@@H](NC(=O)[C@H](Cc1ccccc1)NC(=O)[C@H](C)NC(=O)[C@H](CCCCNC(=O)COCCOCCNC(=O)COCCOCCNC(=O)CC[C@H](NC(=O)CCCCCCCCCCCCCCCCCCC(=O)O)C(=O)O)NC(=O)[C@H](CCC(N)=O)NC(=O)[C@H](C)NC(=O)[C@@H](NC(=O)[C@H](CCCCN)NC(=O)[C@H](CC(=O)O)NC(=O)[C@H](CC(C)C)NC(=O)C(C)(C)NC(=O)[C@@H](NC(=O)[C@H](CO)NC(=O)[C@H](Cc1ccc(O)cc1)NC(=O)[C@H](CC(=O)O)NC(=O)[C@H](CO)NC(=O)[C@@H](NC(=O)[C@H](Cc1ccccc1)NC(=O)[C@@H](NC(=O)CNC(=O)[C@H](CCC(=O)O)NC(=O)CCNC(=O)C(C)(C)c1cncnc1)[C@@H](C)O)[C@@H](C)O)[C@@H](C)CC)[C@@H](C)CC)C(C)C)C(=O)N[C@@H](C)C(=O)NCC(=O)NCC(=O)N1CCC[C@H]1C(=O)N[C@@H](CO)C(=O)N[C@@H](CO)C(=O)NCC(=O)N[C@@H](C)C(=O)N1CCC[C@H]1C(=O)N1CCC[C@H]1C(=O)N1CCC[C@H]1C(=O)N[C@@H](CO)C(N)=O [Compound 161] ({X76-βAla}-EGTFTSDYSI[Aib]LDKIAQK([AEEA-AEEA-γGlu-C20 diacid])AFVQWLIAGGPSSGAPPPS-NH2) | 0.1 to 1 | 113 | > 1000 | 10 to 100 | 94 | > 1000 |
| CC[C@H](C)[C@H](NC(=O)[C@H](CC(C)C)NC(=O)[C@H](Cc1c[nH]c2ccccc12)NC(=O)[C@H](CCC(N)=O)NC(=O)[C@@H](NC(=O)[C@H](Cc1ccccc1)NC(=O)[C@H](C)NC(=O)[C@H](CCCCNC(=O)COCCOCCNC(=O)COCCOCCNC(=O)CC[C@H](NC(=O)CCCCCCCCCCCCCCCCCCC(=O)O)C(=O)O)NC(=O)[C@H](CCC(N)=O)NC(=O)[C@H](C)NC(=O)[C@@H](NC(=O)[C@H](CCCCN)NC(=O)[C@H](CC(=O)O)NC(=O)[C@H](CC(C)C)NC(=O)C(C)(C)NC(=O)[C@@H](NC(=O)[C@H](CO)NC(=O)[C@H](Cc1ccc(O)cc1)NC(=O)[C@H](CC(=O)O)NC(=O)[C@H](CO)NC(=O)[C@@H](NC(=O)[C@H](Cc1ccccc1)NC(=O)[C@@H](NC(=O)CNC(=O)[C@H](CCC(=O)O)NC(=O)CCNC(=O)C(CC)(CC)c1cc(F)cc(C#N)c1)[C@@H](C)O)[C@@H](C)O)[C@@H](C)CC)[C@@H](C)CC)C(C)C)C(=O)N[C@@H](C)C(=O)NCC(=O)NCC(=O)N1CCC[C@H]1C(=O)N[C@@H](CO)C(=O)N[C@@H](CO)C(=O)NCC(=O)N[C@@H](C)C(=O)N1CCC[C@H]1C(=O)N1CCC[C@H]1C(=O)N1CCC[C@H]1C(=O)N[C@@H](CO)C(N)=O [Compound 162] ({X81-βAla}-EGTFTSDYSI[Aib]LDKIAQK([AEEA-AEEA-γGlu-C20 diacid])AFVQWLIAGGPSSGAPPPS-NH2) | 1 to 10 | 127 | > 1000 | 1 to 10 | 113 | < 1000 |
